Consider two compounds from patent publication US20090318530A1, “PHARMACEUTICAL COMPOSITIONS COMPRISING NK1 RECEPTOR ANTAGONISTS AND SODIUM CHANNEL BLOCKERS” (GLAXO GROUP LIMITED, priority 2007, published 2009).

Like-named read-outs stand apart in the source and are kept apart here.

A short description of data set [1]: Blood and brain drug concentrations in satellite animals. Type of data set: in vivo. The settings on record: rat; for concentration at 30 min / concentration at 60 min: CD; for concentration at 30 min: subcutaneous; for concentration at 60 min: intraperitoneal. How it is done: […] Blood and brain samples were taken for analysis of the drug concentrations in these compartments.
All doses were calculated as base. ENa8 was dosed via the subcutaneous (s.c.) route at 1 ml/kg in a 2% v/v DMSO/saline vehicle 30 minutes prior to test. Compound ENK6 was dosed with via the intraperitoneal (i.p.) route 60 minutes before the test. ENK6 was dissolved in saline.

The test system of data set [2] is threshold for tonic hindlimb extensor seizures. Nature of the data set: Maximal electroshock seizure threshold (MEST) test, 'up and down' method. Type of data set: in vivo, rat. The settings on record: male CD rats. How it is done:
This work was conducted in compliance with the Home Office Guidance on the operation of the Animals (Scientific Procedures) Act 1986 and GlaxoSmithKline ethical standards. Male CD rats (100-145 g) were supplied by Charles River, UK. Animals were group housed (6 animal per cage) with free access to food (Standard rodent chow; Harlan, UK) and water under a 12 h light/dark cycle (lights on at 0700 h). A period of at least one week between arrival at GSK and the study was allowed in all cases.
Animals were administered a test compound at the appropriate dose, route and pre-treatment time and returned to their home cage. Testing occurred in a separate room from that used for housing. […] Seizure threshold was determined using the ‘up and down’ method of Kimball et al. (1957)(Kimball A W, Burnett W T Jr, Doherty D G. (1957) Radiat Res. 7(1):1-12). […]
All doses were calculated as base. […]
Induction of seizure is measured as an all-or-nothing effect scored as either present (+) or absent (0) for each animal. […] Drug effects were calculated as the % change in CC50. Significant differences between drug-treated animals and appropriate vehicle treated groups were assessed according to the methods of Litchfield and Wilcoxon (1949). The statistical significance of differences between (5R)-5-(4-{[(2-fluorophenyl)methyl]oxy}phenyl)-L-prolinamide or in combination with ENK6 was assessed using a Student's t test.
On the technique in general: In the maximal electroshock model the usual endpoint is tonic extension of the hind limbs.

Take `Cl.NC(=O)[C@@H]1CC[C@H](c2ccc(OCc3ccccc3F)cc2)N1` [ENa8, (5R)-5-(4-{[(2-fluorophenyl)methyl}oxy]phenyl)-L-prolinamide hydrochloride]: the concentration at 30 min came out at 1170 ng/g in data set [1] (brain, 1 mg/kg, ENa8 1 mg/kg, ENK6 veh, rat satellite animals n=2, read-out: Brain ENa8); 2300 ng/g in data set [1] (brain, 3 mg/kg, ENa8 3 mg/kg, ENK6 veh, rat satellite animals n=2, read-out: Brain ENa8); 1340 ng/g in data set [1] (brain, ENa8 1 mg/kg + ENK6 30 mg/kg, rat satellite animals n=2, read-out: Brain ENa8); 2620 ng/g in data set [1] (brain, ENa8 3 mg/kg + ENK6 30 mg/kg, rat satellite animals n=2, read-out: Brain ENa8); 188 ng/mL in data set [1] (whole blood, 1 mg/kg, ENa8 1 mg/kg, ENK6 veh, rat satellite animals n=2, read-out: Blood ENa8); 349 ng/mL in data set [1] (whole blood, 3 mg/kg, ENa8 3 mg/kg, ENK6 veh, rat satellite animals n=2, read-out: Blood ENa8). Besides, the concentration at 30 min in data set [1] (whole blood, ENa8 1 mg/kg + ENK6 30 mg/kg, rat satellite animals n=2, read-out: Blood ENa8) came to 246 ng/mL; in data set [1] (whole blood, ENa8 3 mg/kg + ENK6 30 mg/kg, rat satellite animals n=2, read-out: Blood ENa8), 456 ng/mL. Also, the “blood or brain concentration of ENa8 in the presence of ENK6” value in data set [1] (ENa8 1 or 3 mg/kg s.c. with ENK6 30 mg/kg i.p. versus ENa8 alone) was “No increase”. Further, the “seizure threshold in the MEST” value in data set [2] (ENa8 3 mg/kg s.c. alone, 30 min prior to test) is reported as “small, but significant increase”.

Consider `COc1ccc(-n2nnnc2C(F)(F)F)cc1CN[C@H]1CCCN[C@H]1c1ccccc1.Cl.Cl` [ENK6, [2-Methoxy-5-(5-trifluoromethyl-tetrazol-1-yl)-benzyl]-([2S,3S]-2-phenyl-piperidin-3-yl)-amine dihydrochloride], for which the concentration at 60 min in data set [1] (brain, 30 mg/kg, ENK6 30 mg/kg, ENa8 veh, rat satellite animal n=1, read-out: Brain ENK6) is 1510 ng/g; in data set [1] (brain, ENK6 30 mg/kg + ENa8 1 mg/kg, rat satellite animals n=2, read-out: Brain ENK6), 1160 ng/g; in data set [1] (brain, ENK6 30 mg/kg + ENa8 3 mg/kg, rat satellite animals n=2, read-out: Brain ENK6) it was 881 ng/g; in data set [1] (whole blood, 30 mg/kg, ENK6 30 mg/kg, ENa8 veh, rat satellite animal n=1, read-out: Blood ENK6), 631 ng/mL; in data set [1] (whole blood, ENK6 30 mg/kg + ENa8 1 mg/kg, rat satellite animals n=2, read-out: Blood ENK6) it was 471 ng/mL; in data set [1] (whole blood, ENK6 30 mg/kg + ENa8 3 mg/kg, rat satellite animals n=2, read-out: Blood ENK6), 414 ng/mL. Moreover, the “seizure threshold in the MEST” value in data set [2] (ENK6 30 mg/kg i.p. alone, 60 min before test) was “no effect”.
